{
  "source": "patent US12673970B2",
  "about": "“Neuroactive steroids and their methods of use” (priority 2020, dated 2026)",
  "data": [
    {"target": "GABAA receptor ([35S]-TBPS binding, rat brain cortical membranes)", "assay": "Steroid inhibition of [35S]-TBPS binding", "conditions": "3 nM [35S]-TBPS, in the presence of 5 mM GABA", "method": "[35S]-t-Butylbicyclophosphorothionate (TBPS) binding assays using rat brain cortical membranes in the presence of 5 mM GABA has been described (Gee et al, J. Pharmacol. Exp. Ther. 1987, 241, 346-353; Hawkinson et al, Mol. Pharmacol. 1994, 46, 977-985; Lewin, A. H et al., Mol. Pharmacol. 1989, 35, 189-194).\nBriefly, cortices are rapidly removed following decapitation of carbon dioxide-anesthetized Sprague-Dawley rats (200-250 g). The cortices are homogenized in 10 volumes of ice-cold 0.32 M sucrose using a glass/teflon homogenizer and centrifuged at 1500×g for 10 min at 4° C. The resultant supernatants are centrifuged at 10,000×g for 20 min at 4° C. to obtain the P2 pellets. The P2 pellets are resuspended in 200 mM NaCl/50 mM Na—K phosphate pH 7.4 buffer and centrifuged at 10,000×g for 10 min at 4° C. This washing procedure is repeated twice and the pellets are resuspended in 10 volumes of buffer. Aliquots ([…]) of the membrane suspensions are incubated with 3 nM [35S]-TBPS and 5 mL aliquots of test drug dissolved in dimethyl sulfoxide (DMSO) (final 0.5%) in the presence of 5 mM GABA. The incubation is brought to a final volume of 1.0 mL with buffer. Nonspecific binding is determined in the presence of […] and ranged from 15 to 25%. Following a 90 min incubation at room temp, the assays are terminated by filtration through glass fiber filters (Schleicher and Schuell No. 32) using a cell harvester (Brandel) and rinsed three times with ice-cold buffer. Filter bound radioactivity is measured by liquid scintillation spectrometry. Non-linear curve fitting of the overall data for each drug averaged for each concentration is done using Prism (GraphPad). […] The concentration of test compound producing 50% inhibition (IC50) of specific binding and the maximal extent of inhibition (Imax) are determined for the individual experiments with the same model used for the overall data and then the means±SEM.s of the individual experiments are calculated.\nVarious compounds are or can be screened to determine their potential as modulators of [35S]-TBPS binding in vitro. These assays are or can be performed in accordance with the above", "units": {"IC50": "nM"}, "values": [
      {"compound": "C[C@@]1(O)CC[C@H]2[C@@H](CC[C@@H]3[C@@H]2CC[C@]2(C)[C@@H](C(=O)CCn4cc(C#N)cn4)CC[C@@H]32)C1", "note": "[Example 1, 1-(3-((3R,5S,8R,9R,10S,13S,14S,17S)-3-hydroxy-3,13-dimethylhexadecahydro-1H-cyclopenta[a]phenanthren-17-yl)-3-oxopropyl)-1H-pyrazole-4-carbonitrile]", "IC50": "< 100"},
      {"compound": "COC[C@@]1(O)CC[C@H]2[C@@H](CC[C@@H]3[C@@H]2CC[C@]2(C)[C@@H](C(=O)CCn4cc(C#N)cn4)CC[C@@H]32)C1", "note": "[Example 2, 1-(3-((3R,5S,8R,9R,10S,13S,14S,17S)-3-hydroxy-3-(methoxymethyl)-13-methylhexadecahydro-1H-cyclopenta[a]phenanthren-17-yl)-3-oxopropyl)-1H-pyrazole-4-carbonitrile]", "IC50": "< 100"},
      {"compound": "C[C@@]1(O)CC[C@H]2[C@H](CC[C@@H]3[C@@H]2CC[C@]2(C)[C@@H](C(=O)CCCn4cc(C#N)cn4)CC[C@@H]32)C1", "note": "[Example 3, 1-(4-((3R,5R,8R,9R,10S,13S,14S,17S)-3-hydroxy-3,13-dimethylhexadecahydro-1H-cyclopenta[a]phenanthren-17-yl)-4-oxobutyl)-1H-pyrazole-4-carbonitrile]", "IC50": "< 100"},
      {"compound": "C[C@@]1(O)CC[C@H]2[C@H](CC[C@@H]3[C@@H]2CC[C@]2(C)[C@@H](C(=O)CCCCn4cc(C#N)cn4)CC[C@@H]32)C1", "note": "[Example 4, 1-(5-((3R,5R,8R,9R,10S,13S,14S,17S)-3-hydroxy-3,13-dimethylhexadecahydro-1H-cyclopenta[a]phenanthren-17-yl)-5-oxopentyl)-1H-pyrazole-4-carbonitrile]", "IC50": "< 100"},
      {"compound": "C[C@@]1(O)CC[C@H]2[C@H](CC[C@@H]3[C@@H]2CC[C@]2(C)[C@@H](CC(=O)Cn4cc(C#N)cn4)CC[C@@H]32)C1", "note": "[Example 5, 1-(3-((3R,5R,8R,9R,10S,13R,14S,17R)-3-hydroxy-3,13-dimethylhexadecahydro-1H-cyclopenta[a]phenanthren-17-yl)-2-oxopropyl)-1H-pyrazole-4-carbonitrile]", "IC50": "100 to 1000"},
      {"compound": "CC(C)(C(=O)C[C@H]1CC[C@H]2[C@@H]3CC[C@@H]4C[C@](C)(O)CC[C@@H]4[C@H]3CC[C@]12C)n1cc(C#N)cn1", "note": "[Example 7, 1-(4-((3R,5R,8R,9R,10S,13R,14S,17R)-3-hydroxy-3,13-dimethylhexadecahydro-1H-cyclopenta[a]phenanthren-17-yl)-2-methyl-3-oxobutan-2-yl)-1H-pyrazole-4-carbonitrile]", "IC50": "100 to 1000"},
      {"compound": "C[C@H](C(=O)C[C@H]1CC[C@H]2[C@@H]3CC[C@@H]4C[C@](C)(O)CC[C@@H]4[C@H]3CC[C@]12C)n1cc(C#N)cn1", "note": "[Example 8, 1-((R)-4-((3R,5R,8R,9R,10S,13R,14S,17R)-3-hydroxy-3,13-dimethylhexadecahydro-1H-cyclopenta[a]phenanthren-17-yl)-3-oxobutan-2-yl)-1H-pyrazole-4-carbonitrile]", "IC50": "100 to 1000"},
      {"compound": "C[C@@H](C(=O)C[C@H]1CC[C@H]2[C@@H]3CC[C@@H]4C[C@](C)(O)CC[C@@H]4[C@H]3CC[C@]12C)n1cc(C#N)cn1", "note": "[Example 9, 1-((S)-4-((3R,5R,8R,9R,10S,13R,14S,17R)-3-hydroxy-3,13-dimethylhexadecahydro-1H-cyclopenta[a]phenanthren-17-yl)-3-oxobutan-2-yl)-1H-pyrazole-4-carbonitrile]", "IC50": "100 to 1000"},
      {"compound": "C[C@H](C(=O)Cn1cc(C#N)cn1)[C@H]1CC[C@H]2[C@@H]3CC[C@@H]4C[C@](C)(O)CC[C@@H]4[C@H]3CC[C@]12C", "note": "[Example 10, 1-((S)-3-((3R,5R,8R,9R,10S,13S,14S,17R)-3-hydroxy-3,13-dimethylhexadecahydro-1H-cyclopenta[a]phenanthren-17-yl)-2-oxobutyl)-1H-pyrazole-4-carbonitrile]", "IC50": "< 100"},
      {"compound": "C[C@@H](C(=O)Cn1cc(C#N)cn1)[C@H]1CC[C@H]2[C@@H]3CC[C@@H]4C[C@](C)(O)CC[C@@H]4[C@H]3CC[C@]12C", "note": "[Example 11, 1-((R)-3-((3R,5R,8R,9R,10S,13S,14S,17R)-3-hydroxy-3,13-dimethylhexadecahydro-1H-cyclopenta[a]phenanthren-17-yl)-2-oxobutyl)-1H-pyrazole-4-carbonitrile]", "IC50": "100 to 1000"},
      {"compound": "C[C@@]1(O)CC[C@H]2[C@H](CC[C@@H]3[C@@H]2CC[C@]2(C)[C@@H](CC(=O)c4ccc(C#N)cc4)CC[C@@H]32)C1", "note": "[Example 12, 4-(2-((3R,5R,8R,9R,10S,13R,14S,17R)-3-hydroxy-3,13-dimethylhexadecahydro-1H-cyclopenta[a]phenanthren-17-yl)acetyl)benzonitrile]", "IC50": "< 100"},
      {"compound": "COC[C@@]1(O)CC[C@@]2(C)[C@H](CC[C@@H]3[C@@H]2CC[C@]2(C)[C@@H](C(=O)CCn4cc(C#N)cn4)CC[C@@H]32)C1", "note": "[Example 13, 1-(3-((3R,5R,8R,9S,10S,13S,14S,17S)-3-hydroxy-3-(methoxymethyl)-10,13-dimethylhexadecahydro-1H-cyclopenta[a]phenanthren-17-yl)-3-oxopropyl)-1H-pyrazole-4-carbonitrile]", "IC50": "< 100"}
    ]},
    {"tested_on": "GABAA receptor ([35S]-TBPS binding, rat brain cortical membranes)", "assay": "not given", "conditions": "statement on the positive control; cited from earlier work", "values": [
      {"compound": "Picrotoxin", "inhibition of TBPS binding (positive control)": "robustly inhibit TBPS binding"}
    ]}
  ]
}
